# Bridge positions count the residues as written; N and C are the ends. Ends that are not written are not given here. Peptide text beside a SMILES is read from it.
# Tests used:
# α5β1 integrin = biological target: T1, α5β1 integrin (Homo sapiens, UniProt P05556+P08648); experiment: Inhibition of peptide-displaying phage binding to α5β1 integrin by synthetic peptides; settings: for binding affinity for α5β1: high binding affinity defined as IC50 of 1×10^−7 M or less in a competitive binding assay
# T1 construct: The αvβ3, αvβ5 and α5β1 integrins were isolated from human placental extracts; from tissue; host or cells: human placenta
# T1 sequence (P08648 42-894 limits assumed): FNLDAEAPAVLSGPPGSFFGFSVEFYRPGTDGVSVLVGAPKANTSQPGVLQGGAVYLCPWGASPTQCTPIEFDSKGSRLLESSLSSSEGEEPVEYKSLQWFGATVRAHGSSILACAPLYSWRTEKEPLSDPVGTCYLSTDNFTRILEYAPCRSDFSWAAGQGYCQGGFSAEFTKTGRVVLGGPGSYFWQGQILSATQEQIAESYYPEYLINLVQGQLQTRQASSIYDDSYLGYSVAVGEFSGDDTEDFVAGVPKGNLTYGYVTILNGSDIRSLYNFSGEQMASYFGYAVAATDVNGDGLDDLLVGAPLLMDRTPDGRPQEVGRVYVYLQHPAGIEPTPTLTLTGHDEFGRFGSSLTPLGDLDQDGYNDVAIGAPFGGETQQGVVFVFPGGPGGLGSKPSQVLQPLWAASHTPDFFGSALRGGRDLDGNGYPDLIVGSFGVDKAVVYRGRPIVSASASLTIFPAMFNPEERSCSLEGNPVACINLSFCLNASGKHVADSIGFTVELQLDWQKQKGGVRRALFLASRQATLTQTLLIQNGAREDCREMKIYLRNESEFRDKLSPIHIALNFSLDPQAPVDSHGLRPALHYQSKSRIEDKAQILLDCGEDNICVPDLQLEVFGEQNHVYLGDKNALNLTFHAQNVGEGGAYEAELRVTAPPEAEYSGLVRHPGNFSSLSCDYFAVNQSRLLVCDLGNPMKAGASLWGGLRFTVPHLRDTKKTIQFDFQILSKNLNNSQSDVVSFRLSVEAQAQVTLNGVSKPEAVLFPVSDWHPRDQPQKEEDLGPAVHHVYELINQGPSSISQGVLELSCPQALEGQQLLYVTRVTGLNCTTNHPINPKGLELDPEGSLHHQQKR
# T1 sequence (P08648 895-1049 partner limits assumed): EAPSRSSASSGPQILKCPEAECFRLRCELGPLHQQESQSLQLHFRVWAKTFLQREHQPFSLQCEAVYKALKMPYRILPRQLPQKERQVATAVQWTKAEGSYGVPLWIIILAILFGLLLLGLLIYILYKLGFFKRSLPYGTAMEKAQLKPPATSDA
# T1 sequence (P05556 21-798): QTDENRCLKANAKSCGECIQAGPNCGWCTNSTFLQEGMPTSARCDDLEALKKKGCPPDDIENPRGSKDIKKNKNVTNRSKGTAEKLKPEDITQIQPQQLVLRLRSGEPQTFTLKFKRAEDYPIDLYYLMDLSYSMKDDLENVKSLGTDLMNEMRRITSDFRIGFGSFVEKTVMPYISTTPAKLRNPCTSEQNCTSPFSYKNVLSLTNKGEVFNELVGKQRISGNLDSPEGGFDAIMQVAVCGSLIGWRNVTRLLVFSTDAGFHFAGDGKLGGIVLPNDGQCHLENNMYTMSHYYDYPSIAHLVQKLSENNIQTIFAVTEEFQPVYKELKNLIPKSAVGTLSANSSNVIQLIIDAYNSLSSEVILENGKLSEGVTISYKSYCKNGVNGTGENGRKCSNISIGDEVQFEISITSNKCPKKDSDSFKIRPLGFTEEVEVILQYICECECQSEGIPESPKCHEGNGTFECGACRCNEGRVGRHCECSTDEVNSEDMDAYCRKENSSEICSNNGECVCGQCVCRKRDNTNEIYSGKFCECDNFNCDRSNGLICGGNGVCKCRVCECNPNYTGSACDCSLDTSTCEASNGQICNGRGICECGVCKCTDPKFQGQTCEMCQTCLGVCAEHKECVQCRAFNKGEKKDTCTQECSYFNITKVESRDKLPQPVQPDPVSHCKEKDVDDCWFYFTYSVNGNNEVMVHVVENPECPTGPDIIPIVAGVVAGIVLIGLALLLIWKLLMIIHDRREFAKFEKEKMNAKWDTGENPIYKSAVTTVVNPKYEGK
# Procedure: Phage clone containing the RGDGW [SEQ ID NO:9] sequence was incubated for 1 hour in integrin-coated microliter wells in the presence of the competing peptides. After extensive washing, the phage remained bound were determined as described in Example XII.
# (§1) In addition, most of the phage-binding activity in the αvβ3 preparation was captured into microliter wells coated with antibodies against the αv or β3 subunits as described previously (Koivunen et al., J. Biol. Chem., 268:20205–10 (1993). The αIIbβ3 integrin was isolated from outdated platelets (Pytela et al., Science, 231:1559–1562 (1986)).
# (§2) Binding of individual cloned phage to integrins was studied in microliter wells as described in Koivunen et al., J. Cell. Biol., 124:373–380 (1994). Phage binding to α5β1 and αvβ3 were assayed in TBS buffer containing 1% BSA and 1 mM MnCl2 and binding to αvβ5 in the presence of 1 mM CaCl2. Phage that were bound were determined by their ability to infect F-pilus positive K91kan bacteria. Bacteria were grown overnight in microliter wells in the presence of tetracycline and the absorbance indicative of bacterial growth was read at 600 nm with an ELISA plate reader.
# Relative affinities of the […] [SEQ ID NO:12] and CRGDC [SEQ ID NO:37] peptides were determined by inhibition of binding of peptide-displaying phage to α5β1 integrin. Peptide-displaying phage were constructed as described by Scott and Smith, Science 249:386–390 (1990) and Example IV. Microwell plates were coated with various integrins as described by Koivunen et al., J. Biol. Chem., 268:20205–10 (1993) and Example II.
# The binding of […] [SEQ ID NO:12]-containing peptide ligands to α5β1 integrin was performed as follows. RRETAWA [SEQ ID NO:8]-displaying phage were incubated for 1 hour in the presence of various concentrations of the cyclic peptides containing […] [SEQ ID NO:12] and containing CRGDC [SEQ ID NO:37] in microliter wells coated with the α5β1 integrin. Binding was quantitated by adding K91kan bacteria directly to the wells and growing the bacteria overnight at room temperature (Smith and Scott, Meth. Enzymol., 217:228–257 (1993), which is incorporated herein by reference).
# Additional peptide motifs were tested as follows. ELRGDGW-displaying [SEQ ID NO:4] phage were added together with various concentrations of the cyclic peptides containing […] [SEQ ID NO:12] and containing CRGDC [SEQ ID NO:37] into microliter wells coated with the α5β1 integrin, incubated for 1 hour at room temperature and binding to wells was quantitated.
# αvβ3 integrin = αvβ3 integrin (Homo sapiens, UniProt P05106+P06756); experiment: Inhibition of peptide-displaying phage binding to αvβ3 integrin by synthetic peptides; parameters: The αvβ3, αvβ5 and α5β1 integrins were isolated from human placental extracts; from tissue; host or cells: human placenta
# αvβ3 integrin, sequence (P06756 31-889 limits assumed): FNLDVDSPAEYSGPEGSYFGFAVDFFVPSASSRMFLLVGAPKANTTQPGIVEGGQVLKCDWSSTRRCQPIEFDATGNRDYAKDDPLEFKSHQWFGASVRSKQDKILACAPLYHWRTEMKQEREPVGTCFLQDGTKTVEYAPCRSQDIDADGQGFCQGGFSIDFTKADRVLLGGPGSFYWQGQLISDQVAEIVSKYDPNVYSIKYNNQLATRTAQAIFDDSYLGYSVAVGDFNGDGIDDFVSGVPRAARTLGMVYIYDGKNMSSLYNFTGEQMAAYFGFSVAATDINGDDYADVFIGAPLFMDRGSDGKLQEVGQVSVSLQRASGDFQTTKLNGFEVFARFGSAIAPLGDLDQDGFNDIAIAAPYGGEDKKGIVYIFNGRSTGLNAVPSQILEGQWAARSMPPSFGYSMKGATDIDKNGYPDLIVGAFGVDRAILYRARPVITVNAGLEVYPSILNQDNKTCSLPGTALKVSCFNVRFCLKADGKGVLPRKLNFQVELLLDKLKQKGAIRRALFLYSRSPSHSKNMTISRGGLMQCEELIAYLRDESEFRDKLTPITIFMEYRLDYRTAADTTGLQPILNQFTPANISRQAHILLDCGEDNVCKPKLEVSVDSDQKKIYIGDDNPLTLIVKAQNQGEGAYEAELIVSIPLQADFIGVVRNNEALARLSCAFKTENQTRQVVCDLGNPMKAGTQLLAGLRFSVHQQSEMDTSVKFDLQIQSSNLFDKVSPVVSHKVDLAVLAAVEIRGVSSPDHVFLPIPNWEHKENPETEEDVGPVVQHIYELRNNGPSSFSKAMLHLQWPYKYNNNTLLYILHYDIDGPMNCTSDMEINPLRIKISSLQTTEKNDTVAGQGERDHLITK
# αvβ3 integrin, sequence (P06756 891-1048 partner limits assumed): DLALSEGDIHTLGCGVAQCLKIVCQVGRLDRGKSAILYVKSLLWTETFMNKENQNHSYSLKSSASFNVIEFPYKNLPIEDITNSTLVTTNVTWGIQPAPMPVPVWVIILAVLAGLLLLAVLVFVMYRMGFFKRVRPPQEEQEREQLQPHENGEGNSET
# αvβ3 integrin, sequence (P05106 27-788): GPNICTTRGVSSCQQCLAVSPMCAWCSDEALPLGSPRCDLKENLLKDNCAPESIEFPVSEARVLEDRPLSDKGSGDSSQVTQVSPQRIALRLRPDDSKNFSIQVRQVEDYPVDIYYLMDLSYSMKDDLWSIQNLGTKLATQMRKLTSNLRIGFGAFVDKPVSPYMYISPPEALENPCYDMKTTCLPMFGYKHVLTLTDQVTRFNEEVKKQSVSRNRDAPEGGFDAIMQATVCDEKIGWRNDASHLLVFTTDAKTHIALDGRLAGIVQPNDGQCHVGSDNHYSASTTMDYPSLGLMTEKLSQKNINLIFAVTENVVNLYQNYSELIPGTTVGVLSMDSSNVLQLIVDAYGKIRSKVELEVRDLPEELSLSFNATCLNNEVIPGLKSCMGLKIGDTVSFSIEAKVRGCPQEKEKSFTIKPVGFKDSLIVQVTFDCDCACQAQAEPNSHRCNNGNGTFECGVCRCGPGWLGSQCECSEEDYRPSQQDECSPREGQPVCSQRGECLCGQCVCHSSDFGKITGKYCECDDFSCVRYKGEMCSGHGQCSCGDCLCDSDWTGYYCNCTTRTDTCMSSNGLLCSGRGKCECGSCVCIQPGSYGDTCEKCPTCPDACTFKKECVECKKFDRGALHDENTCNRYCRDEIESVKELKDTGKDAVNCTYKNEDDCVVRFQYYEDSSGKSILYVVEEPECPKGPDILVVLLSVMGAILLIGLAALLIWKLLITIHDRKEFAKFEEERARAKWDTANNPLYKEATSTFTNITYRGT
# Source text: as §1, §2
# The ability of […] [SEQ ID NO:12] and CRGDC [SEQ ID NO:37] containing peptides to inhibit binding of CRGDCL-displaying [SEQ ID NO:7] phage to the microwells coated with αvβ3 integrin also was examined. CRGDCL-displaying [SEQ ID NO:7] phage were added to a well and either cyclic […] [SEQ ID NO:6] or cyclic […] [SEQ ID NO:5] was added to compete for binding. Binding was quantitated as described above.
# αvβ5 integrin = αvβ5 integrin (Homo sapiens, UniProt P06756+P18084); experiment: Inhibition of αvβ5-mediated cell attachment to vitronectin; format: cell-based; parameters: αvβ5-mediated attachment of HT-29 cells to vitronectin; endogenous in cells; host or cells: HT-29 cells; UCLA-P3 cells
# αvβ5 integrin, sequence (P06756 31-889 limits assumed): as the sequence (P06756 31-889 limits assumed) above
# αvβ5 integrin, sequence (P06756 891-1048 partner limits assumed): as the sequence (P06756 891-1048 partner limits assumed) above
# αvβ5 integrin, sequence (P18084 24-799): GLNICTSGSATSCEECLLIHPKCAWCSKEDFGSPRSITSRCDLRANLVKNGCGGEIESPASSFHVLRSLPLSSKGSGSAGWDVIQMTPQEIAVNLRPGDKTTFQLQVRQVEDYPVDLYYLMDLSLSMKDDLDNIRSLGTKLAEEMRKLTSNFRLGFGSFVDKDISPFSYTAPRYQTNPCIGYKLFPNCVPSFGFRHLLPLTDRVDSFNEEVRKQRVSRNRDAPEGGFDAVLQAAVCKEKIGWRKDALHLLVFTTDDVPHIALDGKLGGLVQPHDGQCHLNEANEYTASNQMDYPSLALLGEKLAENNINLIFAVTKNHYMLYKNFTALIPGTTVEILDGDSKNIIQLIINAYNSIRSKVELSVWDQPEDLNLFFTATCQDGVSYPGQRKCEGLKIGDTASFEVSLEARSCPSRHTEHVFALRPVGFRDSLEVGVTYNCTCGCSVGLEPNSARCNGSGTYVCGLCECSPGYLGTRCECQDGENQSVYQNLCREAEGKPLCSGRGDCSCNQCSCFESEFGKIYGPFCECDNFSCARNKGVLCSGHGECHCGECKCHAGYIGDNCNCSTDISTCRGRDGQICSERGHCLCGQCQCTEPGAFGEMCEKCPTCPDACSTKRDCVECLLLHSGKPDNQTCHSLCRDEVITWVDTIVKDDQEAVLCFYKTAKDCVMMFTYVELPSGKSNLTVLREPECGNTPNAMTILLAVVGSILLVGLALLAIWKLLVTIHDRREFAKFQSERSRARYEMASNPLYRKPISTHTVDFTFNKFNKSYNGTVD
# Source text: FIG. 12—αvβ5-mediated attachment of HT-29 cells to vitronectin.
# Cell lines expressing different integrins were used to examine peptide inhibition of integrin function. A human melanoma cell line, C8161, a fibroblast cell line, WI-38, and an osteosarcoma cell line, MG-63 (described by Seftor et al., Canc. Res., 53:3411–3415 (1993); Vogel et al., J. Biol. Chem., 265:5934–5937 (1990); and Pytela et al. (1985), supra, respectively, each of which is incorporated herein by reference) attach to fibronectin through α5β1 integrin, as does B2/α27, a CHO cell line transfected with human α5. B2/C1, the control parental CHO line (Bauer et al., J. Cell. Biol. 116:477–487 (1992), which is incorporated herein by reference), attaches via […]. CHO cells C11 and NIH 3T3 cells express the endogenous Chinese hamster and mouse α5β1 integrins, respectively. The human melanoma cells, A375-M, attach to fibronectin through both α5β1 and α4β1 integrins (Mould et al., J. Biol. Chem. 265:4020–4024 (1990), which is incorporated herein by reference). CHO cell line B2/v7 express the αvβ1 integrin (Zhang et al., J. Cell. Biol. 122:235–242 (1993), which is incorporated herein by reference). The vitronectin-binding integrins […] and αvβ3 were assayed using the cell line HT-29 and IMR-90, respectively (Koivunen et al., J. Biol. Chem. 268: 20205–20210 (1993)).
# Cell lines expressing fibronectin-binding integrins were used to determine peptide activities against these integrins in the cell attachment assay described by Ruoslahti et al., Meth. Enzymol., 144:803–831 (1982), which is incorporated herein by reference. Human plasma fibronectin was iodinated as described by Morla and Ruoslahti, J. Cell Biol., 118:421–429 (1992), which is incorporated herein by reference. Vitronectin was obtained from Telios Pharmaceuticals (San Diego, Calif.). […] Peptide was coated on plastic by incubating at 37° C. for 2 hours in phosphate buffered saline containing 0.25% glutaraldehyde to crosslink the peptide. Free binding sites on the plastic were blocked using BSA. Approximately 1×10^5 cells per well were allowed to attach for 1 hour in the presence or absence of competing peptides. Bound cells were quantitated by staining with 0.1% amido black.
# Inhibition of cell attachment mediated by either fibronectin- or vitronectin-binding integrins was performed to determine peptide specificity in a biologically relevant system. The assays and cell lines were performed as described above. FIGS. 5 and 6 show the results of cell attachment mediated by the fibronectin binding integrins α5β1 and αvβ1.
compound,measurement,setting,value
A*CPSRLDSPC*G (ACPSRLDSPCG; disulfide 2-10 (inferred)),inhibition of RGD phage binding to α5β1,"α5β1 integrin; RGDGW phage, FIG. 9",no inhibition
same,affinity for αvβ3,αvβ3 integrin; phage binding experiments,low
same,selectivity towards the αvβ3 integrin,αvβ3 integrin; phage binding experiments,partial selectivity
GACRRETAWACGA,inhibition of binding of ELRGDGW-displaying phage to α5β1 integrin,"α5β1 integrin; ELRGDGW-displaying phage, CRRETAWAC compared with CRGDC, FIG. 2",approximately the same degree
same,efficiency of inhibition of RRETAWA-displaying phage binding to α5β1 relative to CRGDC containing peptides,"α5β1 integrin; RRETAWA-displaying phage, comparator CRGDC, FIG. 4",at least 10 times
same,binding affinity for α5β1,α5β1 integrin; listed as CRRETAWAC,high binding affinity
same,binding affinity for α5β1,α5β1 integrin; listed as GA*CRRETAWAC*GA,high affinity
same,activity against cell attachment to vitronectin,"αvβ5 integrin; all concentrations tested, FIG. 7 (sentence prints αvβ1)",essentially devoid of activity
same,inhibition of binding of CRGDCL-displaying phage to integrin-coated wells,"αvβ3 integrin; CRGDCL-displaying phage, αvβ3-coated wells, FIG. 3 (result sentence prints α5β1)",ineffective
"C[C@H](N)C(=O)N[C@H]1CSSC[C@@H](C(=O)NCC(=O)O)NC(=O)[C@H](Cc2ccccc2)NC(=O)[C@@H]2CSSC[C@H](NC(=O)[C@H](CC(=O)O)NC1=O)C(=O)N[C@@H](CCCNC(=N)N)C(=O)NCC(=O)N[C@@H](CC(=O)O)C(=O)N2 (H-ACDCRGDCFCG-OH; disulfide 2-10, 4-8)",affinity relative to *CRGDC* in HT-29 attachment to vitronectin,"αvβ5 integrin; HT-29 cells, higher than *CRGDC*",40 fold
same,affinity relative to A*CRGDGWC*G in HT-29 attachment to vitronectin,"αvβ5 integrin; HT-29 cells, higher than A*CRGDGWC*G",40 fold
same,enhancement in activity relative to *CRGDC* in UCLA-P3 cells,αvβ5 integrin; UCLA-P3 cells,20 fold
same,inhibition of phage binding to αvβ3 relative to *CRGDC*,αvβ3 integrin; better than *CRGDC*,5 fold

# From patent US7067619B2, “Integrin-binding peptides” (La Jolla Cancer Research Foundation, priority 1993, dated 2006)
